Six compounds from ChEMBL document CHEMBL1201862, “PubChem BioAssay data set” (2004) can be followed below.

Molecules are shown by their SMILES. The source made the active and inactive calls.

Assay [1] has as its target DNA (cytosine-5)-methyltransferase 1 (Homo sapiens, UniProt P26358). Description: DNMT1 methyltransferase inhibitors, confirmation, biochemical, fluorescent molecular beacon (AID 602386). It counts as functional.
Assay [2] is described as follows: A Cell Based Secondary Assay to Explore Cytotoxicity in THP-1 Cells of Compounds that Modulate Mycobacterium tuberculosis in Media Containing Glycerol versus Media without Glycerol (2). It counts as functional.
Assay [3] in a line: THP-1 cell cytotoxicity, cytotoxicity control, set 4 (AID 504911). The format is functional. As to conditions: Mycobacterium tuberculosis.
Assay [4] in a line: THP-1 cell cytotoxicity, dose response, cytotoxicity control, set 3 (AID 504852). It counts as functional. To be noted: Mycobacterium tuberculosis.
Assay [5] has as its target T1, Rac GTPase-activating protein 1 (Homo sapiens, UniProt Q9H0H5).
T1 sequence (Q9H0H5 whole entry): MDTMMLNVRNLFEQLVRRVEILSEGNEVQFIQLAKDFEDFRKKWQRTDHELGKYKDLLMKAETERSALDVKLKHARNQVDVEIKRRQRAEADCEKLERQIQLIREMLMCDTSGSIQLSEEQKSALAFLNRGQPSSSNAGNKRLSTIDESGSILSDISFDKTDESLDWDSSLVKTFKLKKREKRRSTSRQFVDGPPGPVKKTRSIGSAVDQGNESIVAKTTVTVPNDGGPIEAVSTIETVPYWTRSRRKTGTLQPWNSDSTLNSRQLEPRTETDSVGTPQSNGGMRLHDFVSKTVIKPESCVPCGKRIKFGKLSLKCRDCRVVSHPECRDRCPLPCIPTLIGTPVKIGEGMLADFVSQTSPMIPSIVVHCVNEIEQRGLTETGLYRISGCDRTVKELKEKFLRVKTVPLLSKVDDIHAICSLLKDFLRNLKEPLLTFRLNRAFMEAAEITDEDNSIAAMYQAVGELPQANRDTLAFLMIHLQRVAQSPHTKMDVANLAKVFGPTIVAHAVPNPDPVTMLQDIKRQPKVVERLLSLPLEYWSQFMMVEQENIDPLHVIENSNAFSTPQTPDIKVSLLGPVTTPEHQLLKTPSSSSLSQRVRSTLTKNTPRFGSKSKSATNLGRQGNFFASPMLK
The experiment in a line: MgcRacGAP GTPase-activating activity inhibitors, confirmation, biochemical, ADP Hunter fluorescence, primary and confirmatory (AID 624330). The format is functional.

For assay [6], the target named is T2, DNA repair protein RAD52 homolog (Homo sapiens, UniProt P43351).
T2 sequence (P43351 whole entry): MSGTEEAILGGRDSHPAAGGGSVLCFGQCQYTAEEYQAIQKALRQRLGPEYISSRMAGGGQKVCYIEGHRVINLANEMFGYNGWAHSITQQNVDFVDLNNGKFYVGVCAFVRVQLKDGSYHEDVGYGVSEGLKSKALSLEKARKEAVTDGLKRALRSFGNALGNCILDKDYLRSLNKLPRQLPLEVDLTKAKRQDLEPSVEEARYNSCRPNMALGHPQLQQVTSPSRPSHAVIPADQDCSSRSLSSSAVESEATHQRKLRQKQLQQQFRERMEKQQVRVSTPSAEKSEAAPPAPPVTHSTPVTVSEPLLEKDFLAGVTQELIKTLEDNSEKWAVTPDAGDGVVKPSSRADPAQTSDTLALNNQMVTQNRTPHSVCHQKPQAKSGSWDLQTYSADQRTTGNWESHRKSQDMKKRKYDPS
The format is functional, biochemical.

For assay [7], the target named is Dual specificity protein kinase CLK2 (Homo sapiens, UniProt P49760). It counts as functional.
Assay [8] has as its target MAP/microtubule affinity-regulating kinase 3 (Homo sapiens, UniProt P27448). It counts as functional.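 Further: MARK3 affinity measured as one member of a kinome panel.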
Assay [9] addresses Cyclin-dependent kinase 5 (Homo sapiens, UniProt Q00535). It counts as functional.
Assay [10] has as its target Cyclin-dependent kinase 1 (Homo sapiens, UniProt P06493). The format is functional.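 Further: Kinome-wide panel profiling, with the target listed as panel member CDC2.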
Assay [11] deals with STE20-like serine/threonine-protein kinase (Homo sapiens, UniProt Q9H2G2). It counts as functional.
Assay [12] deals with Glycogen synthase kinase-3 beta (Homo sapiens, UniProt P49841). The format is functional.
Assay [13] addresses Dual specificity protein kinase CLK4 (Homo sapiens, UniProt Q9HAZ1). The format is functional.
Assay [14] concerns the target Tyrosine-protein kinase receptor UFO (Homo sapiens, UniProt P30530). It counts as functional.
Another assay deals with Misshapen-like kinase 1 (Homo sapiens, UniProt Q8N4C8). The format is functional.
For assay [15], the target named is Mitogen-activated protein kinase kinase kinase kinase 4 (Homo sapiens, UniProt O95819). The format is functional.
For assay [16], the target named is Serine/threonine-protein kinase pim-1 (Homo sapiens, UniProt P11309). The format is functional.
In assay [17] the target is Cell division cycle 7-related protein kinase (Homo sapiens, UniProt O00311). The format is functional.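 Further: value obtained from a kinome-wide kinase panel.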
Assay [18] deals with Homeodomain-interacting protein kinase 2 (Homo sapiens, UniProt Q9H2X6). The format is functional.
Assay [19] addresses Interleukin-1 receptor-associated kinase 4 (Homo sapiens, UniProt Q9NWZ3). The format is functional.
The target of assay [20] is cAMP-dependent protein kinase catalytic subunit alpha (Homo sapiens, UniProt P17612). The format is functional.
The target of assay [21] is 26S proteasome non-ATPase regulatory subunit 14 (Homo sapiens, UniProt O00487). Description: inhibition of proteasome subunit RPN11 – biochemical, fluorescence polarization, uHTS hits, confirmation (AID 602368). It counts as functional. A general note: Polarisation of emitted light reports the rotation of a fluorescent probe.
Assay [22] concerns the target 72 kDa type IV collagenase (Homo sapiens, UniProt P08253). The experiment in a line: Dose Response validation of uHTS RPN11 inhibitor hits using a MMP-2 Fluorescence assay. It counts as functional.
In another assay the target is Prothrombin (Bos taurus, UniProt P00735). The experiment in a line: thrombin inhibition, dose response, biochemical, fluorescence polarization, uHTS hits (AID 602369). It counts as functional.
The target of assay [23] is ALK tyrosine kinase receptor (Homo sapiens, UniProt Q9UM73). The format is functional.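 Further: ALK tested as one member of a kinase panel screen.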

Glycogen synthase kinase-3 beta, sequence (P49841 whole entry): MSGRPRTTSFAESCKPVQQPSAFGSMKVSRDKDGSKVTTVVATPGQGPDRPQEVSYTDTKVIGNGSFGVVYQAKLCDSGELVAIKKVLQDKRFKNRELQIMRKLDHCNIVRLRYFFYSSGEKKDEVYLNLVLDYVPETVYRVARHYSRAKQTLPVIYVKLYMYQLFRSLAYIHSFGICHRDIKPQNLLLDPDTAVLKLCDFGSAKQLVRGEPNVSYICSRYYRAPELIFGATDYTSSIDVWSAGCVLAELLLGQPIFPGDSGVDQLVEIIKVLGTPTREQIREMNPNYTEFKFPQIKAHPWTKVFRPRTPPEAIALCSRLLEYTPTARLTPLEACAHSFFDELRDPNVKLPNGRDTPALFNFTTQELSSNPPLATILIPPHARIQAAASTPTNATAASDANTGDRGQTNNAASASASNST
Dual specificity protein kinase CLK4, sequence (Q9HAZ1 whole entry): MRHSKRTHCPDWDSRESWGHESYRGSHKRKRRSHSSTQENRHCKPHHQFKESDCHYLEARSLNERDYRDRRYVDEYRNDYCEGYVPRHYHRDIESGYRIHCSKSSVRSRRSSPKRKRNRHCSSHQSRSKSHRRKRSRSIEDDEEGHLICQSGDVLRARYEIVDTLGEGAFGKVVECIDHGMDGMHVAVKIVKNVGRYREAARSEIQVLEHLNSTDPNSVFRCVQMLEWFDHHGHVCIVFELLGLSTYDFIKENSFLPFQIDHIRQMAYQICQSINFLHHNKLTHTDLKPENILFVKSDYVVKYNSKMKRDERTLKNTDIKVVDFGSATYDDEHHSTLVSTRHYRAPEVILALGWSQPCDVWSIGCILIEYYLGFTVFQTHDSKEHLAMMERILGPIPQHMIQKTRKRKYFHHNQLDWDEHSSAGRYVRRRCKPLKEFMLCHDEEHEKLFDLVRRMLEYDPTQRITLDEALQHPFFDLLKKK
Cell division cycle 7-related protein kinase, sequence (O00311 whole entry): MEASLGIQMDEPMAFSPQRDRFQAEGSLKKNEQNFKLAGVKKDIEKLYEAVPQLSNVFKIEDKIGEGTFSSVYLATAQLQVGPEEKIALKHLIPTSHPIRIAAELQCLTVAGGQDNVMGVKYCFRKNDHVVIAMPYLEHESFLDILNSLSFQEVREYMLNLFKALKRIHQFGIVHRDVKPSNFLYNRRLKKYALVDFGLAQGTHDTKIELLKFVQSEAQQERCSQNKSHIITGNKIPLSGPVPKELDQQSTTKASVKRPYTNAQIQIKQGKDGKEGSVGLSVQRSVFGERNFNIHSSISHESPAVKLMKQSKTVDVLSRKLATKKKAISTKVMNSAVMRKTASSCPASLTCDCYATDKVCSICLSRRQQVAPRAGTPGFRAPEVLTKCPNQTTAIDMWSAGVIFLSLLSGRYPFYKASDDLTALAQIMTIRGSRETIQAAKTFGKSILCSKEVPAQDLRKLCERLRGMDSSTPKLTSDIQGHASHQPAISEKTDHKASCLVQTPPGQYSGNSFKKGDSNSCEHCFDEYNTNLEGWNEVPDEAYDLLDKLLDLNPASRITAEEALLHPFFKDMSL
Mitogen-activated protein kinase kinase kinase kinase 4, sequence (O95819 whole entry): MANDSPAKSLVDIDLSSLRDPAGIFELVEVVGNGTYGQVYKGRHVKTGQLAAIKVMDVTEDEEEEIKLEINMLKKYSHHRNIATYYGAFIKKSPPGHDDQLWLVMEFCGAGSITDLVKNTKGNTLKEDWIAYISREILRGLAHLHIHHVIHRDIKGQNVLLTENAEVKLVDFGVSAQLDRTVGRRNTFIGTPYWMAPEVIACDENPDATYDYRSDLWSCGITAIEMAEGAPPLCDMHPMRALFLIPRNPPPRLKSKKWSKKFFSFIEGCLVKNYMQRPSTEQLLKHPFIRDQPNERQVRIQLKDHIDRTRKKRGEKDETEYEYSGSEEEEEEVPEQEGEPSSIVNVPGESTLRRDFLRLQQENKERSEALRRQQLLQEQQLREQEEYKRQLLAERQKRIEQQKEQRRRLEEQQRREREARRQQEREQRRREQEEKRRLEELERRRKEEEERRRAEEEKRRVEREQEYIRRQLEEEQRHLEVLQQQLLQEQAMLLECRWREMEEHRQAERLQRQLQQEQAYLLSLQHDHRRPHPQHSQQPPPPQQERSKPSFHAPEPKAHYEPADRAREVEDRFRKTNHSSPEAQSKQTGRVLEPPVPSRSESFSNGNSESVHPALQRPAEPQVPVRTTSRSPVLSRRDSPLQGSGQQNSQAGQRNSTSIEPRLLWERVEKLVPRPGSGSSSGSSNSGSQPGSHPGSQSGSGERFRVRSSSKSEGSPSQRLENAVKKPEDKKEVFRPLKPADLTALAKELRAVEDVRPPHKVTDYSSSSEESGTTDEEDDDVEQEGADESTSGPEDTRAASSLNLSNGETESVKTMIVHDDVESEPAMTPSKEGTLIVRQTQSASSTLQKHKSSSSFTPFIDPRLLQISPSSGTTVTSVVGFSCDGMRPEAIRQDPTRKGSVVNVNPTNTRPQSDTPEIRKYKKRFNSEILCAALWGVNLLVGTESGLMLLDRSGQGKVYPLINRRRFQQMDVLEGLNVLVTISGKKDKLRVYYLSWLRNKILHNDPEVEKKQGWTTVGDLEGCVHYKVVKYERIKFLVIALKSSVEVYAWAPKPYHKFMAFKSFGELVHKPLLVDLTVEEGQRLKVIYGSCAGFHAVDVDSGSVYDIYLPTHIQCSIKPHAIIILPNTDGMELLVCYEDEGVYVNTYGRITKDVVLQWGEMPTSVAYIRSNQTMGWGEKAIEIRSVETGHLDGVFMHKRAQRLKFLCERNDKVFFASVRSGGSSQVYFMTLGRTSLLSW
Dual specificity protein kinase CLK2, sequence (P49760 whole entry): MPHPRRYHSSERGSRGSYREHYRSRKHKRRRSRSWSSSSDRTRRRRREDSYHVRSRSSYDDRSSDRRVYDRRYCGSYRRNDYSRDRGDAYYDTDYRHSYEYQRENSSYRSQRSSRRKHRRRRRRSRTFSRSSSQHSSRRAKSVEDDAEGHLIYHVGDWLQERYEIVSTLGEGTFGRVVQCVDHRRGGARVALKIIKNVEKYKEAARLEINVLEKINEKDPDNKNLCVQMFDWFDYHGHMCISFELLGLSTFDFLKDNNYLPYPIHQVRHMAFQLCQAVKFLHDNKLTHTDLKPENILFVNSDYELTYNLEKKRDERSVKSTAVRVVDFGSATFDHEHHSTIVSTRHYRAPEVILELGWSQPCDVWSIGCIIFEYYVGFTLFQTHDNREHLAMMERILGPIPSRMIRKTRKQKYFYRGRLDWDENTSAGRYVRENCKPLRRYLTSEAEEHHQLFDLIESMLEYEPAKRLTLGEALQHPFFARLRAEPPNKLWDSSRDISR
DNA (cytosine-5)-methyltransferase 1, sequence (P26358 whole entry): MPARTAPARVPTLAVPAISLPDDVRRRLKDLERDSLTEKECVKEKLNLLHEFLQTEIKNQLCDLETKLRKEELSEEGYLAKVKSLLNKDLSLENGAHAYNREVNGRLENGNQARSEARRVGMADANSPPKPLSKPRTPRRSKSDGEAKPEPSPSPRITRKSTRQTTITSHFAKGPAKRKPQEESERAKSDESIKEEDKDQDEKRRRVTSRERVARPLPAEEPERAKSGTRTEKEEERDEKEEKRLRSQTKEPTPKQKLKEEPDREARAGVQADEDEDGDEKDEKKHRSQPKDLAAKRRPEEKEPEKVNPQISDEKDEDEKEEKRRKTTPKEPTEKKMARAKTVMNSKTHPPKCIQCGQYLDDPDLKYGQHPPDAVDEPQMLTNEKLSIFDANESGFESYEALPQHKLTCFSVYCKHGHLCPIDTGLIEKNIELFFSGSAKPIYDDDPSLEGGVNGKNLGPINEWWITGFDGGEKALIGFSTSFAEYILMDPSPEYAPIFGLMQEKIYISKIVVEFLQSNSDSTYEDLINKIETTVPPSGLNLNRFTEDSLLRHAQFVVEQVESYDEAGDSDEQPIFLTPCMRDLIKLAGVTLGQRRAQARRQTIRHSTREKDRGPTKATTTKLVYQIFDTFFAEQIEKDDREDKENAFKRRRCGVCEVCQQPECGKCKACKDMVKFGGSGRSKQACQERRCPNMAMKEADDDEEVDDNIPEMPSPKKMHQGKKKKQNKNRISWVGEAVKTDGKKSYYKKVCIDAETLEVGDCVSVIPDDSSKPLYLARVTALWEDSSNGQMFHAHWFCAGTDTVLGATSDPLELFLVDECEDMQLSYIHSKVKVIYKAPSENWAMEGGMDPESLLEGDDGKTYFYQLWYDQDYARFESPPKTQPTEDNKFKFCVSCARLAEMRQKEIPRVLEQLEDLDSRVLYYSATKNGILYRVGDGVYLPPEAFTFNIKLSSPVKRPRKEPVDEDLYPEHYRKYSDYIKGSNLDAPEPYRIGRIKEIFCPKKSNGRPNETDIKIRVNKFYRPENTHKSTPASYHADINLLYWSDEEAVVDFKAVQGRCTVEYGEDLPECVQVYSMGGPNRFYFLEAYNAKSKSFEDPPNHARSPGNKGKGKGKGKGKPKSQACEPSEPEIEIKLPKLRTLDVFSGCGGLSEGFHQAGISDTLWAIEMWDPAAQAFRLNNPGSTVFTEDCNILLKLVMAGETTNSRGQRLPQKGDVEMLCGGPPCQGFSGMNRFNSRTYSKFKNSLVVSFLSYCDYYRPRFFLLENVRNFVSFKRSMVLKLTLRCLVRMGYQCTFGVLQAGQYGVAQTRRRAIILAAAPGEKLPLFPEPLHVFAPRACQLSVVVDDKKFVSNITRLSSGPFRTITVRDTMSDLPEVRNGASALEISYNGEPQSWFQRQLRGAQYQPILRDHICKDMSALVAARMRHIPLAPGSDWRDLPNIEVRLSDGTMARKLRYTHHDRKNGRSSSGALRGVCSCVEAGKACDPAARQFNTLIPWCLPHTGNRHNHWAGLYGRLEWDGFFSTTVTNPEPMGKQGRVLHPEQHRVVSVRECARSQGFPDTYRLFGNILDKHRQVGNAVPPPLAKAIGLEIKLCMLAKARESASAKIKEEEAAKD

Take `CC[N+](C)(CC)CCCCOc1ccc2c(c1)C(=O)c1cc(OCCCC[N+](C)(CC)CC)ccc1-2`: the 50% inhibitory concentration (IC50) in [1] was 1.24 µM (active); in assay [5] it was 180 µM (active). Moreover, the figures for the CC50 in [2], in assay [3] and in [4] were 38.8 µM (active), 10.5 µM (active) and 17.1 µM (active), respectively. The AC50 in assay [6] is 0.574 µM (active).
Consider `Cc1n[nH]c2c1C(c1ccccc1Br)C(C#N)=C(N)O2` (centres undefined), for which the Ki in assay [7] was 3.16 µM (active); in assay [8], 2 µM (active); in assay [9], 3.16 µM (active); in assay [10] it was 5.01 µM (active); in assay [11], 1.58 µM (active); in [12] it was 3.98 µM (active). Further, the Ki in assay [13] was 5.01 µM (active); in assay [14], 2 µM (active).
As to `CC(C)Oc1ccc(-c2noc(-c3ccc(CN4CC(C(=O)O)C4)cc3)n2)cc1Cl`, the Ki was 6.31 µM (active) at Misshapen-like kinase 1 and 5.01 µM (active) in assay [15].
As to `O=C1Nc2ccccc2Nc2cc(-c3ccncc3)ccc21`, the Ki in assay [16] is > 10 µM (inactive); in assay [17], 0.00794 µM (active); in [18] it was > 3.16 µM (inactive); in assay [19] it was 2.51 µM (active); in assay [12], 0.398 µM (active); in [20], 1.26 µM (active). Also, the Ki in [13] was 0.0398 µM (active); in assay [15], 1.26 µM (active).
Turning to `COc1ccc(CCNc2ccc(C(CC(N)=O)NC(=O)Cc3cccc4ccccc34)cc2[N+](=O)[O-])cc1` (centres undefined), the results for the concentration for half-maximal inhibition (IC50) (in assay [21]; in assay [22]; at Prothrombin) were 25.8 µM (active), > 100 µM (inactive) and 40.1 µM (active), respectively.
`Oc1cccc(-c2c[nH]c3ncccc23)c1`: the Ki in assay [23] is > 3.16 µM (inactive); in assay [17] it was 0.316 µM (active).

By IC50 is commonly meant the midpoint of a concentration-inhibition curve. As usually defined, the CC50 is the concentration that lowers cell viability or growth by half. One may read the AC50 as the midpoint of the concentration-response curve, whichever way the signal moves. Usually Ki stands for the equilibrium dissociation constant of an inhibitor or competing ligand from its target.
